Paper PMC5519928, “Log D versus HPLC derived hydrophobicity: The development of predictive tools to aid in the rational design of bioactive peptoids” (Biopolymers, 2017)
Converted amounts (≈) assume the structure as drawn. Non-standard residues stand in square brackets, D forms with d. Residues, ends and D or L forms follow the SMILES beside them. Nspe = C[C@H](NCC(=O)O)c1ccccc1; Nlys = NCCCCNCC(=O)O

Legend:
[1] = Average hydrophobicity by analytical reverse-phase HPLC retention; assay type: physicochemical
Method: To examine the average hydrophobicity of the peptoids, the retention time for from reverse‐phase HPLC was determined on a C18 column using acetonitrile and water, with 0.1% TFA (see Figure 3A). To find log D values, partitioning experiments were carried out, as illustrated by Figure 2. A peptoid solution (between 10 and 100 µM) in PBS was added to an equal volume of octanol and the system allowed to equilibrate under gentle agitation for ∼150 h (as 48 h was not found to be sufficient for the system to reach equilibrium). At this point it is assumed that the peptoid has partitioned between these two phases, such as to minimise its free energy.
Preparative RP‐HPLC was performed with a semi‐preparative Perkin Elmer Series 200 lc pump fitted with a 785A UV/Vis detector using a SB‐Analytical ODH‐S optimal column (250 mm × 10 mm, 5 µm); flow rate 2 mL min^−1; λ = 250 nm, typical linear gradient elution 0–50% of solvent B over 60 min (A = 0.1% TFA in 95% H2O and 5% MeCN, B = 0.1% TFA in 5% H2O and 95% MeCN). Analytical RP‐HPLC was performed with a Perkin Elmer Series 200 LC pump fitted with a Series 200 UV/Vis detector using a SB‐Analytical ODH‐S optimal column (100 mm × 1.6 mm, 3.5 µm); flow rate 1 mL min^−1; λ = 220 nm, linear gradient elution 0–100% of solvent B over 30 min (A = 0.05% TFA, 95% H2O, 5% MeCN, B = 0.03% TFA, 5% H2O, 95% MeCN).
Preparative RP-HPLC was performed with a semi-preparative Perkin Elmer Series 200 lc pump fitted with a 785A UV/Vis detector using a SB-Analytical ODH-S optimal column (250 × 10 mm, 5 µm); flow rate 2 ml min^−1; λ = 250 nm, typical linear gradient elution 0-50% of solvent B over 60 min (A = 0.1% TFA in 95% H2O and 5% MeCN, B = 0.1% TFA in 5% H2O and 95% MeCN). Analytical RP-HPLC was performed with a Perkin Elmer Series 200 LC pump fitted with a Series 200 UV/Vis detector using a SB-Analytical ODH-S optimal column (100 × 1.6 mm, 3.5 µm); flow rate 1 ml min^−1; λ = 220 nm, linear gradient elution 0-100% of solvent B over 30 min (A = 0.05% TFA, 95% H2O, 5% MeCN, B = 0.03% TFA, 5% H2O, 95% MeCN).
Table S3. Data from analytical RP-HPLC for representative compounds of this peptoid library. Analytical HPLC gradient: 0 – 100% solvent B over 30 min at 220 nm (where solvent A = 95% H2O, 5% MeCN, 0.05 % TFA; solvent B = 95% MeCN, 5% H2O, 0.03% TFA).

[2] = tested on: L. mexicana promastigotes; assay: Cytotoxicity assay with Leishmania mexicana M379 promastigotes (alamarBlue); assay type: cell-based; conditions: 1 h pre-incubation with compound, then 24 h incubation, alamarBlue 4 h, fluorescence Ex 560/Em 600 nm, triplicate, minimum of two separate occasions, ED50 = median effective dose
Method: Leishmania mexicana (M379) promastigote parasites were maintained at 26 °C in Schneider's Insect medium (Sigma-Aldrich) supplemented with heat-inactivated foetal bovine sera (FBS, 15%; Biosera Ltd). Cells were counted using a Neubauer Improved Haemocytometer. Promastigotes were transformed into axenic amastigotes by a pH and temperature shift as previously described.5 A culture of recently transformed (three days) promastigotes in the late log phase was transferred into Schneider's Insect medium supplemented with 20% heat-inactivated FBS (pH 5.5) at 5 x 10^5 parasites/mL. […] After additional 5–7 days, the parasites should be in the amastigote stage and be ready for cytotoxicity studies and infections.
Cytotoxicity analyses were performed in 96-well plates (Costar, Fisher Scientific) using alamarBlue (Invitrogen) for cell viability detection as previously described.6 Promastigote and amastigote L. mexicana were pre-incubated with the compounds in triplicate (5 mM stock solutions in DMSO; Amphotericin B was used as a positive control; untreated parasites with DMSO as a negative control) in 50 µL of the corresponding media at 4 x 106 mL-1 for 1 hour. […] Then, 10 µL alamarBlue solution (Invitrogen) was added to each well for an incubation of 4 hours prior to assessing cell viability using a fluorescent plate reader (Biotek; Ex 560 nm / Em 600 nm). […]

S. aureus = assay type: cell-based; conditions: Iso-sensitest broth, 96-well, 2-100 µM 1:2 serial dilutions, 38 °C 16 h with shaking, absorbance; lowest concentration completely inhibiting growth; triplicate, minimum of two occasions
Method: (§1) Bacterial cultures were prepared by streaking the bacterial strain from a 4°C- or frozen stock culture to single colonies onto agar plates (containing the appropriate antibiotic for strains carrying antibiotic resistance plasmids) with an inoculation loop, followed by overnight incubation at 37 °C.
(§2) Primary overnight (o/n) cultures were prepared by inoculating a single colony from a streak plate into 5 mL of LB broth in a screw-capped culture tube, that was placed on a tube rotator at 37 °C (or 30 °C for sensitive strains) for overnight incubation. Before the usage of stock cultures the strains genotype were checked. Primary stocks were stored at 4°C for up to 6 weeks and always replaced from fresh colonies.
(§3) Fresh cultures used for experiments contained 0.1-0.5 mL o/n culture diluted into 8 mL of fresh medium in a standard test tube. Placed in a shaking water bath or on a tube rotator the bacteria were grown at the required temperature to the required cell density. Frozen stock cultures used for long term storage that can remain viable for 10 years were prepared by mixing 2.5 mL fresh o/n culture with 1.5 mL sterile 80% glycerol in a 5 mL sterile blood tube and stored at -20 °C.
(§4) MIC values were attained according to the previously described protocol4 and were conducted in 96-well plates (Costar, Fisher Scientific). Using the pre-prepared cultures, an innoculum density of 0.07 at 650 nm was set by comparing the absorbance with 0.5 MacFarland standard (240 μM BaCl2 in 0.18 M H2SO4). The innoculum was then diluted down ten-fold with Iso-sensitest broth (Oxoid, ThermoScientific) before use. Peptoids were initially dissolved in DMSO (5 mM) and then diluted further with Iso-sensitest broth to achieve a concentration range of 4 – 200 µM using 1 : 2 serial dilutions. 50 μl of innoculum and 50 μL of peptoid solution were added to each test well (final concentration range of 2 – 100 µM). Positive control containing only innoculum and Iso-sensitest broth; negative control containing inoculum and serial dilutions of ampicillin (from 250 microgram/mL to 2 microgram per mL); DMSO control containing innoculum and serial dilutions of DMSO; and Iso-sensitest broth were used as a sterile control. […] Quantitative data was attained from absorbance values using a microplate reader.

E. coli = assay type: cell-based; conditions: Iso-sensitest broth, 96-well, 2-100 µM 1:2 serial dilutions, 38 °C 16 h with shaking, absorbance; lowest concentration completely inhibiting growth; triplicate, minimum of two occasions
Method: as §1, §2, §3, §4

What does the source list for C[C@@H](c1ccccc1)N(CC(N)=O)C(=O)CN(C(=O)CN(CCCCN)C(=O)CN(C(=O)CN(C(=O)CN(CCCCN)C(=O)CN(C(=O)CN(C(=O)CN(CCCCN)C(=O)CN(C(=O)CN(C(=O)CNCCCCN)[C@@H](C)c1ccccc1)[C@@H](C)c1ccccc1)[C@@H](C)c1ccccc1)[C@@H](C)c1ccccc1)[C@@H](C)c1ccccc1)[C@@H](C)c1ccccc1)[C@@H](C)c1ccccc1 [Peptoid 4] (H-[Nlys][Nspe][Nspe][Nlys][Nspe][Nspe][Nlys][Nspe][Nspe][Nlys][Nspe][Nspe]-NH2)?
RP-HPLC Retention (% MeCN) ([1]; Supplement table 4 (chemical and physical data for peptoid library), % MeCN at elution in RP-HPLC): 42 % MeCN; HPLC RT ([1]; Table 2 / main text, chromatographic, RP-HPLC C18 retention time as measure of average hydrophobicity, gradient 0-100% solvent B over 30 min, 220 nm, 1 mL/min, A = 0.05% TFA, 95% H2O, 5% MeCN, B = 0.03% TFA, 5% H2O, 95% MeCN, around pH 2.2): 14.9 min; ED50 L. mex prom. [2]: 8 µM; MIC S. aureus (S. aureus): 2 µM (≈ 3.64 µg/mL); MIC E. coli (E. coli): 25 µM (≈ 45.5 µg/mL)
